According to patent US20220249447A1, “CF3-, OCF3-, SCF3-, and SF5-Containing Antibacterial Agents” (Purdue Research Foundation, priority 2019, published 2022):
In brackets after ≈: the same amount, converted by molar mass. Where two headings read alike, the source gives them in different places.

Assays:
[1] = system: Neisseria gonorrhea strain 181; assay: MIC against Neisseria gonorrhea strain 181; format: cell-based
Description: (§1) Bacteria were cultured in cation-adjusted Mueller Hinton Broth (for strains in Tables 1-3) or Brain Heart Infusion broth (for Enterococcus faecium) or Tryptic Soy Broth (all other bacteria) in a 96-well plate at 37° C. for at least 20 hours. The MIC was classified as the lowest concentration where no visual growth of bacteria was observed. The minimum bactericidal concentration (MBC) was tested by spotting 4 μL from wells with no growth onto Tryptic Soy Agar (TSA) plates. Plates were incubated at 37° C. for at least 18 hours before recording the MBC.

S. aureus = assay: MIC, broth microdilution, S. aureus; format: cell-based; conditions: Staphylococcus aureus
Description: as §1

MRSA ATCC 33592 = assay: MIC, broth microdilution, MRSA ATCC 33592; format: cell-based, methicillin-resistant S. aureus; conditions: Staphylococcus aureus
Description: All MRSA isolates were acquired from BEI Resources. The remaining bacteria were purchased from the American Type Culture Collection (ATCC).
as §1

[2] = system: C. difficile NR-32895 (P19); assay: MIC against C. difficile NR-32895 (P19); format: cell-based
Description: as §1

[3] = system: C. difficile NR-13435 (isolate 9); assay: MIC against C. difficile NR-13435 (isolate 9); format: cell-based
Description: as §1

[4] = system: C. difficile NR-32891 (P13); assay: MIC against C. difficile NR-32891 (P13); format: cell-based
Description: as §1

[5] = system: C. difficile NR-32904 (P30); assay: MIC against C. difficile NR-32904 (P30); format: cell-based
Description: as §1

VRE ATCC 51575 = assay: MIC, broth microdilution, VRE ATCC 51575; format: cell-based; conditions: Enterococcus
Description: as §1

[6] = system: C. difficile NR-13432 (isolate 6); assay: MIC against C. difficile NR-13432 (isolate 6); format: cell-based
Description: as §1

[7] = system: L. monocytogenes ATCC 19115; assay: MIC, broth microdilution, L. monocytogenes ATCC 19115; format: cell-based; conditions: Listeria monocytogenes, ATCC19115
Description: as §1

C. difficile ATCC 43255 = assay: MIC against C. difficile ATCC 43255; format: cell-based
Description: as §1

[8] = system: C. difficile ATCC BAA 1801; assay: MIC against C. difficile ATCC BAA 1801; format: cell-based
Description: as §1

E. faecalis ATCC 29212 = assay: MIC, broth microdilution, E. faecalis ATCC 29212; format: cell-based; conditions: Enterococcus faecalis, ATCC29212
Description: as §1

[9] = system: C. difficile NR-32883 (P2); assay: MIC against C. difficile NR-32883 (P2); format: cell-based
Description: as §1

MRSA USA300 cells = assay: Time-kill assay; format: cell-based
Description: The time-kill analysis was performed as previously described^29. […] Aliquots (100 μL) were collected from each treatment after 0, 2, 4, 8, 12, and 24 hours of incubation at 37° C. and subsequently serially diluted in phosphate-buffered saline (PBS). Bacteria were then transferred to TSA plates and incubated at 37° C. for 18-20 hours before viable CFU/mL was determined (see FIG. 2).

[10] = Clostridioides difficile; read-out: MIC C. difficile NR-32895 (P19)
[11] = Clostridioides difficile; read-out: MIC C. difficile NR-13435 (isolate 9)
[12] = Clostridioides difficile; read-out: MIC C. difficile NR-32891 (P13)
[13] = Clostridioides difficile; read-out: MIC C. difficile NR-32904 (P30)
[14] = Clostridioides difficile; read-out: MIC C. difficile NR-13432 (isolate 6)
[15] = Clostridioides difficile, ATCC43255; read-out: MIC C. difficile ATCC 43255
[16] = Clostridioides difficile, BAA1801; read-out: MIC C. difficile ATCC BAA 1801
[17] = Clostridioides difficile; read-out: MIC C. difficile NR-32883 (P2)

With COc1c(Cl)cc(-c2nnc(NC(=O)c3ccc(SC(F)(F)F)cc3)o2)cc1Cl [HSGN-265, N-(5-(3,5-dichloro-4-methoxyphenyl)-1,3,4-oxadiazol-2-yl)-4-((trifluoromethyl)thio)benzamide] the MIC [1] was 2 µg/mL (≈ 4.31 µM), the MIC (S. aureus) was 0.0625 µg/mL (≈ 0.135 µM) and the MIC (MRSA ATCC 33592) was 0.0625 µg/mL (≈ 0.135 µM).

Work on O=C(Nc1nnc(-c2cccc(F)c2)o1)c1ccc(OC(F)(F)F)cc1 [HSGN-237, N-(5-(3-fluorophenyl)-1,3,4-oxadiazol-2-yl)-4-(trifluoromethoxy)benzamide] yielded an MIC [1] of 0.125 µg/mL (≈ 0.34 µM), an MIC [2, 10] of 0.03 µg/mL (≈ 0.0817 µM) and an MIC [3, 11] of 0.03 µg/mL (≈ 0.0817 µM). It also gave an MIC [4, 12] of 0.125 µg/mL (≈ 0.34 µM), an MIC [5, 13] of 0.03 µg/mL (≈ 0.0817 µM) and an MIC (S. aureus) of 0.5 µg/mL (≈ 1.36 µM). For the same compound, the MIC (VRE ATCC 51575) was 1 µg/mL (≈ 2.72 µM), the MIC [6, 14] was 0.06 µg/mL (≈ 0.163 µM) and the MIC [7] was 0.5 µg/mL (≈ 1.36 µM). It also gave an MIC (C. difficile ATCC 43255; [15]) of 0.03 µg/mL (≈ 0.0817 µM), an MIC [8, 16] of 0.06 µg/mL (≈ 0.163 µM) and an MIC (E. faecalis ATCC 29212) of 1 µg/mL (≈ 2.72 µM). The MIC (MRSA ATCC 33592) was 0.5 µg/mL (≈ 1.36 µM) and the MIC [9, 17] was 0.03 µg/mL (≈ 0.0817 µM).

In the case of O=C(Nc1nnc(-c2cccc(Cl)c2)o1)c1ccc(SC(F)(F)F)nc1 [HSGN-247, N-(5-(3-chlorophenyl)-1,3,4-oxadiazol-2-yl)-6-((trifluoromethyl)thio)nicotinamide], the MIC [1] is reported as 0.125 µg/mL (≈ 0.312 µM), the MIC (S. aureus) is reported as 0.5 µg/mL (≈ 1.25 µM) and the MIC [8, 16] is reported as 0.015 µg/mL (≈ 0.0374 µM). It also gave an MIC (MRSA ATCC 33592) of 0.5 µg/mL (≈ 1.25 µM).

For CN[C@H](CC(C)C)C(=O)N[C@H]1C(=O)N[C@@H](CC(N)=O)C(=O)N[C@H]2C(=O)N[C@H]3C(=O)N[C@H](C(=O)N[C@H](C(=O)O)c4cc(O)cc(O)c4-c4cc3ccc4O)[C@H](O)c3ccc(c(Cl)c3)Oc3cc2cc(c3O[C@@H]2O[C@H](CO)[C@@H](O)[C@H](O)[C@H]2O[C@H]2C[C@](C)(N)[C@H](O)[C@H](C)O2)Oc2ccc(cc2Cl)[C@H]1O [Vancomycin, reference compound], the MIC ([2]; Clostridioides difficile, read-out: MIC C. difficile NR-32895 (P19)) was 1 µg/mL (≈ 0.69 µM), the MIC ([3]; Clostridioides difficile, read-out: MIC C. difficile NR-13435 (isolate 9)) was 1 µg/mL (≈ 0.69 µM) and the MIC ([4]; Clostridioides difficile, read-out: MIC C. difficile NR-32891 (P13)) was 0.5 µg/mL (≈ 0.345 µM). It also gave an MIC ([5]; Clostridioides difficile, read-out: MIC C. difficile NR-32904 (P30)) of 1 µg/mL (≈ 0.69 µM), an MIC ([6]; Clostridioides difficile, read-out: MIC C. difficile NR-13432 (isolate 6)) of 0.25 µg/mL (≈ 0.173 µM) and an MIC (C. difficile ATCC 43255; Clostridioides difficile, ATCC43255, read-out: MIC C. difficile ATCC 43255) of 1 µg/mL (≈ 0.69 µM). The Bactericidal/Bacteriostatic (MRSA USA300 cells) was “Bactericidal”, the MIC ([8]; Clostridioides difficile, BAA1801, read-out: MIC C. difficile ATCC BAA 1801) was 1 µg/mL (≈ 0.69 µM) and the MIC ([9]; Clostridioides difficile, read-out: MIC C. difficile NR-32883 (P2)) was 0.5 µg/mL (≈ 0.345 µM).

In the case of O=C(Nc1nnc(-c2cccc(Cl)c2)o1)c1ccc(S(F)(F)(F)(F)F)cc1 [HSGN-259, N-(5-(3-chlorophenyl)-1,3,4-oxadiazol-2-yl)-4-(pentafluoro-k6-sulfaneyl)benzamide], the MIC [1] is reported as 1 µg/mL (≈ 2.35 µM), the MIC (S. aureus) is reported as 0.0625 µg/mL (≈ 0.147 µM) and the MIC [8, 16] is reported as under 0.003 µg/mL. It also gave an MIC (MRSA ATCC 33592) of 0.0313 µg/mL (≈ 0.0735 µM).

With O=C(Nc1nnc(-c2cccs2)o1)c1ccc(S(=O)(=O)C(F)(F)F)cc1 [HSGN-103] the “MIC C. difficile NR-32895 (P19)” value [2] was 0.5 µg/mL (≈ 1.24 µM), the “MIC C. difficile NR-13435 (isolate 9)” value [3] was 0.5 µg/mL (≈ 1.24 µM) and the “MIC C. difficile NR-32891 (P13)” value [4] was 0.5 µg/mL (≈ 1.24 µM). The “MIC C. difficile NR-32904 (P30)” value [5] was 0.5 µg/mL (≈ 1.24 µM), the “MIC C. difficile NR-13432 (isolate 6)” value [6] was 0.5 µg/mL (≈ 1.24 µM) and the “MIC C. difficile ATCC 43255” value (C. difficile ATCC 43255) was 0.5 µg/mL (≈ 1.24 µM). For the same compound, the Bactericidal/Bacteriostatic (MRSA USA300 cells) was “Bacteriostatic”, the “Δlog2 CFU/mL” value (MRSA USA300 cells; MRSA USA300, 3× MIC or 6× MIC, up to 24 hours) was 1.04 and the “MIC C. difficile ATCC BAA 1801” value [8] was 0.5 µg/mL (≈ 1.24 µM). The “MIC C. difficile NR-32883 (P2)” value [9] was 0.5 µg/mL (≈ 1.24 µM).

O=C(Nc1nnc(-c2ccc(F)cc2F)o1)c1ccc(SC(F)(F)F)cc1 [HSGN-219, N-(5-(2,4-difluorophenyl)-1,3,4-oxadiazol-2-yl)-4-((trifluoromethyl)thio)benzamide] gave an MIC [1] of 2 µg/mL (≈ 4.98 µM), an MIC [2, 10] of 0.06 µg/mL (≈ 0.15 µM) and an MIC [3, 11] of 0.007 µg/mL (≈ 0.0174 µM). It also gave an MIC [4, 12] of 0.125 µg/mL (≈ 0.311 µM), an MIC [5, 13] of 0.06 µg/mL (≈ 0.15 µM) and an MIC (S. aureus) of 0.5 µg/mL (≈ 1.25 µM). The MIC [6, 14] was 0.03 µg/mL (≈ 0.0748 µM), the MIC (C. difficile ATCC 43255; [15]) was 0.06 µg/mL (≈ 0.15 µM) and the MIC [8, 16] was 0.015 µg/mL (≈ 0.0374 µM). For the same compound, the MIC (MRSA ATCC 33592) was 0.5 µg/mL (≈ 1.25 µM) and the MIC [9, 17] was 0.003 µg/mL (≈ 0.00748 µM).

For CN(C)[C@@H]1C(O)=C(C(N)=O)C(=O)[C@@]2(O)C(O)=C3C(=O)c4c(O)cccc4[C@@](C)(O)[C@H]3C[C@@H]12 [Tetracycline, reference compound], the MIC [1] was 2 µg/mL (≈ 4.5 µM).

In the case of O=C(Nc1nnc(-c2cccc(C(F)(F)F)c2)o1)c1ccc(SC(F)(F)F)cc1 [HSGN-253, N-(5-(3-(trifluoromethyl)phenyl)-1,3 ,4-oxadiazol-2-yl)-4-((trifluoromethyl)thio)benzamide], the MIC [1] is reported as 2 µg/mL (≈ 4.62 µM), the MIC (S. aureus) is reported as 0.25 µg/mL (≈ 0.577 µM) and the MIC (MRSA ATCC 33592) is reported as 0.125 µg/mL (≈ 0.288 µM).

Work on O=C(Nc1nnc(-c2cccs2)o1)c1cnc(C(F)(F)F)nc1 [HSGN-190, N-(5-(thiophen-2-yl)-1,3,4-oxadiazol-2-yl)-2-(trifluoromethyl)pyrimidine-5-carboxamide] yielded an MIC (S. aureus) of 32 µg/mL (≈ 93.8 µM) and an MIC (MRSA ATCC 33592) of 32 µg/mL (≈ 93.8 µM).
